According to patent publication US20250092065A1, “2-(INDAZOL-5-YL)-6-(PIPERIDIN-4-YL)-1,7-NAPHTHYRIDINE DERIVATIVES AND RELATED COMPOUNDS AS MODULATORS FOR SPLICING NUCLEIC ACIDS AND FOR THE TREATMENT OF PROLIFERATIVE DISEASES” (REMIX THERAPEUTICS INC., priority 2022, published 2025):
Where two headings read alike, the source gives them in different places.

Experiments:
MYB mRNA = assay: RT-qPCR splicing assay, MYB mRNA canonical (CJ) and alternative (AJ) junction; format: cell-based, human; conditions: Homo sapiens; for AC50: MYB alternative junction mRNA, read-out: MYB AJ (increase in AJ mRNA, AC50)
How it was run: (§1)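 A673 or K562 cells treated 24 h at 37 °C with an 11-point 3-fold dilution series (top 10 uM, DMSO ≤0.25%). Lysates went directly to one-step RT-qPCR quantifying canonical (CJ) and alternative-exon (AJ) junctions, normalized to GAPDH, GUSB or PPIA. Values from ΔΔCt versus DMSO, RQ = 2^(−ΔΔCt), expressed as percentage response.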

HTT mRNA = assay: RT-qPCR splicing assay, HTT mRNA canonical (CJ) and alternative (AJ) junction; format: cell-based, human; conditions: Homo sapiens; for AC50: HTT alternative junction mRNA, read-out: HTT AJ (increase in AJ mRNA, AC50)
How it was run: as §1

SMN2 mRNA = assay: RT-qPCR splicing assay, SMN2 mRNA; format: cell-based, human; conditions: Homo sapiens, canonical junction qPCR panel, Table 4; read-out: SMN2 IC50 (decrease in CJ mRNA levels)
How it was run: as §1

K562 cells = assay: Cell Titer Glo 2.0 cell viability (toxicity) assay, K562; conditions: 500 cells/well, 72 hours
Target C = assay: RT-qPCR canonical junction panel assay, Target C mRNA; format: cell-based; conditions: Table 4, read-out: Target C IC50 (decrease in CJ mRNA levels)
How it was run: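 A673 or K562 cells treated with compound; CJ mRNA quantified by junction-spanning RT-qPCR probe after cDNA synthesis, normalised to GAPDH, GUSB or PPIA and DMSO (2^−ΔΔCt), scaled to set ΔCt assay window; IC50 from 4-parameter fit of CJ decrease.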

[1] = MYB canonical junction mRNA, RT-qPCR, read-out: MYB CJ (decrease in CJ mRNA levels, IC50)
[2] = canonical junction qPCR panel, Table 4, read-out: MYB IC50 (decrease in CJ mRNA levels)
[3] = HTT canonical junction mRNA, RT-qPCR, read-out: HTT CJ (decrease in CJ mRNA levels, IC50)
[4] = canonical junction qPCR panel, Table 4, read-out: HTT IC50 (decrease in CJ mRNA levels)

| SMILES | AC50 (MYB mRNA; RT-qPCR) | IC50 (MYB mRNA; [1]) | IC50 (MYB mRNA; [2]) | AC50 (HTT mRNA; RT-qPCR) | IC50 (HTT mRNA; [3]) | IC50 (HTT mRNA; [4]) | IC50 (SMN2 mRNA) | Effect of Exemplary Compounds on Cell Viability, K562 (K562 cells) | IC50 (Target C) |
| --- | --- | --- | --- | --- | --- | --- | --- | --- | --- |
| CC(C)NC1CCN(c2ccc3nc(-c4cc5cn(C)nc5c(F)c4O)ccc3n2)C1 (stereo not drawn) [Compound 388, 7-fluoro-5-{6-[3-(isopropylamino)pyrrolidin-1-yl]-1,5-naphthyridin-2-yl}-2-methylindazol-6-ol] | < 0.1 µM | < 0.1 µM | < 0.1 µM | < 0.1 µM | < 0.1 µM | < 0.1 µM | < 0.1 µM | A (A represents <100 nM) | < 0.1 µM |
| Cc1nc2cc(O)c(-c3ccc4nc(N5CCC(NCC6CC6)C5)ccc4n3)cc2o1 (stereo not drawn) [Compound 389, 6-(6-{3-[(cyclopropylmethyl)amino]pyrrolidin-1-yl}-1,5-naphthyridin-2-yl)-2-methyl-1,3-benzoxazol-5-ol] | < 0.1 µM | < 0.1 µM | < 0.1 µM | 0.1 to 1 µM | < 0.1 µM | < 0.1 µM | < 0.1 µM | B (B represents 100-1000 nM) | 0.1 to 1 µM |
| Cc1nc2c(C)c(O)c(-c3ccc4nc(N5CCC(NCC6CC6)C5)ccc4n3)cc2o1 (stereo not drawn) [Compound 390, 6-(6-{3-[(cyclopropylmethyl)amino]pyrrolidin-1-yl}-1,5-naphthyridin-2-yl)-2,4-dimethyl-1,3-benzoxazol-5-ol] | < 0.1 µM | < 0.1 µM | < 0.1 µM | < 0.1 µM | < 0.1 µM | < 0.1 µM | < 0.1 µM | A (A represents <100 nM) | < 0.1 µM |
| CNC1CCN(c2ccc3nc(-c4cc(F)c5nc(C)cn5c4)ncc3n2)C1 (stereo not drawn) [Compound 393, 1-(2-{8-fluoro-2-methylimidazo[1,2-a]pyridin-6-yl}pyrido[3,2-d]pyrimidin-6-yl)-N-methylpyrrolidin-3-amine] | < 0.1 µM | < 0.1 µM | < 0.1 µM | 0.1 to 1 µM | 0.1 to 1 µM | 0.1 to 1 µM | < 0.1 µM | B (B represents 100-1000 nM) | 0.1 to 1 µM |
| Cc1c(O)c(-c2ncc3nc(C4CCNC4)ccc3n2)cc2cn(C)nc12 (stereo not drawn) [Compound 397, 2,7-dimethyl-5-[6-(pyrrolidin-3-yl)pyrido[3,2-d]pyrimidin-2-yl]indazol-6-ol; trifluoroacetic acid] | 0.1 to 1 µM | 0.1 to 1 µM | 0.1 to 1 µM | 1 to 10 µM | 1 to 10 µM | 1 to 10 µM | < 0.1 µM | B (B represents 100-1000 nM) | > 10 µM |
| Cc1c(O)c(-c2ncc3nc([C@H]4CCNC4)ccc3n2)cc2cn(C)nc12 [Compound 399] | 1 to 10 µM | 1 to 10 µM | 1 to 10 µM | > 10 µM | > 10 µM | > 10 µM | 0.1 to 1 µM | C (C represents 1000-9999 nM) | > 10 µM |
| Cn1cc2cc(-c3ncc4nc(C5CCNCC5)ccc4n3)c(O)c(C#N)c2n1 [Compound 403, 6-hydroxy-2-methyl-5-[6-(piperidin-4-yl)pyrido[3,2-d]pyrimidin-2-yl]indazole-7-carbonitrile; trifluoroacetic acid] | < 0.1 µM | 0.1 to 1 µM | 0.1 to 1 µM | 0.1 to 1 µM | 0.1 to 1 µM | 0.1 to 1 µM | < 0.1 µM | B (B represents 100-1000 nM) | 1 to 10 µM |
| Cn1cc2cc(-c3ccc4nc(N5CCC(NC(C)(C)C)C5)ncc4n3)c(O)cc2n1 (stereo not drawn) [Compound 404, 5-{2-[3-(tert-butylamino)pyrrolidin-1-yl]pyrido[3,2-d]pyrimidin-6-yl}-2-methylindazol-6-ol] | 0.1 to 1 µM | 0.1 to 1 µM | 0.1 to 1 µM | < 0.1 µM | < 0.1 µM | < 0.1 µM | < 0.1 µM | B (B represents 100-1000 nM) | < 0.1 µM |
| COc1cc(-c2ccc3nc(N4CCC(NC(C)(C)C)C4)ncc3n2)cnn1 (stereo not drawn) [Compound 405, N-tert-butyl-1-[6-(6-methoxypyridazin-4-yl)pyrido[3,2-d]pyrimidin-2-yl]pyrrolidin-3-amine] | 1 to 10 µM | 1 to 10 µM | 1 to 10 µM | 1 to 10 µM | 1 to 10 µM | 1 to 10 µM | 1 to 10 µM | C (C represents 1000-9999 nM) | 1 to 10 µM |
| CN[C@H]1CCN(c2ccc3nc(-c4cc(C#N)c5nc(C)cn5c4)ncc3n2)C1 [Compound 406, 2-methyl-6-{6-[(3S)-3-(methylamino)pyrrolidin-1-yl]pyrido[3,2-d]pyrimidin-2-yl}imidazo[1,2-a]pyridine-8-carbonitrile] | 0.1 to 1 µM | 1 to 10 µM | 1 to 10 µM | 1 to 10 µM | 0.1 to 1 µM | 0.1 to 1 µM | 0.1 to 1 µM | B (B represents 100-1000 nM) | 1 to 10 µM |
| CN[C@@H]1CCN(c2ccc3nc(-c4cc(C#N)c5nc(C)cn5c4)ncc3n2)C1 [Compound 407, 2-methyl-6-{6-[(3R)-3-(methylamino)pyrrolidin-1-yl]pyrido[3,2-d]pyrimidin-2-yl}imidazo[1,2-a]pyridine-8-carbonitrile] | 0.1 to 1 µM | 0.1 to 1 µM | 0.1 to 1 µM | 1 to 10 µM | 0.1 to 1 µM | 0.1 to 1 µM | < 0.1 µM | B (B represents 100-1000 nM) | 1 to 10 µM |
| Cc1nc2cc(O)c(-c3ccc4nc(N5CCNCC5)ccc4n3)cc2o1 [Compound 408, 2-methyl-6-[6-(piperazin-1-yl)-1,5-naphthyridin-2-yl]-1,3-benzoxazol-5-ol] | 0.1 to 1 µM | 0.1 to 1 µM | 0.1 to 1 µM | 1 to 10 µM | 0.1 to 1 µM | 0.1 to 1 µM | < 0.1 µM | B (B represents 100-1000 nM) | 1 to 10 µM |
| Cc1nc2cc(O)c(-c3ccc4nc(N5CCN[C@@H](C)C5)ccc4n3)cc2o1 [Compound 409] | 0.1 to 1 µM | 0.1 to 1 µM | 0.1 to 1 µM | 0.1 to 1 µM | 0.1 to 1 µM | 0.1 to 1 µM | < 0.1 µM | B (B represents 100-1000 nM) | 1 to 10 µM |
| Cc1nc2cc(O)c(-c3ccc4nc(N5CCN6CCCC6C5)ccc4n3)cc2o1 (stereo not drawn) [Compound 410] | 0.1 to 1 µM | 0.1 to 1 µM | 0.1 to 1 µM | 0.1 to 1 µM | 0.1 to 1 µM | 0.1 to 1 µM | < 0.1 µM | B (B represents 100-1000 nM) | 0.1 to 1 µM |
| Cc1nc2cc(O)c(-c3ccc4nc(N5CCNC6(CC6)C5)ccc4n3)cc2o1 [Compound 411] | 0.1 to 1 µM | 0.1 to 1 µM | 0.1 to 1 µM | > 10 µM | 1 to 10 µM | 1 to 10 µM | < 0.1 µM | C (C represents 1000-9999 nM) | 1 to 10 µM |
